Source: patent US20250388593A1 (MITSUBISHI TANABE PHARMA CORPORATION, priority 2023, published 2025)

The molecules below were run against CRBN truncate (318-426) (Homo sapiens (Human), UniProt Q96SW2) (assay: Measurement of molecular interactions using surface plasmon resonance (SPR), Biacore T200). Conditions: 25° C., immobilized CRBN truncate, upper limit of measurement 200 μM.
Assay type: binding
Procedure: The instrument used was the Biacore T200 (manufactured by Cytiva). The CRBN truncate (318-426) was obtained by expressing a construct with an Avi-tag added at the C-terminus. The sensor chip used was Sensor Chip SA (manufactured by Cytiva). The CRBN truncate was immobilized using the affinity between SA (streptavidin) on the sensor chip and the Avi-tag. The running buffer was a mixture of 10 mM HEPES pH 7.5, 150 mM NaCl, 1 mM TCEP, 0.005% Tween 20, and 2% DMSO. […] Contact time and dissociation time were set at 60 seconds and 120 seconds, respectively.

Chain of CRBN truncate (318-426) (Q96SW2 318-426): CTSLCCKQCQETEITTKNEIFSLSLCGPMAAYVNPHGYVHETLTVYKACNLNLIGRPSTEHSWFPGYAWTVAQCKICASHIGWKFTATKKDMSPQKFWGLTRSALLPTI

| Kd [µM] | Compound |
| --- | --- |
| ≥ 100 | O=C1CCCC(n2nnc3ccccc32)C(=O)N1 (centres unmarked) [Example 250, 3-(Benzotriazol-1-yl)azepine 2,7-dione] |
| < 50 | CN1C(=O)C(C)(N2C=CCC(=O)NC2=O)c2ccc(/C=C/C(=O)OC(C)(C)C)cc21 (centres unmarked) [Example 288, tert-Butyl (E)-3-[3-(2,4-dioxo-5H-1,3-diazepin-1-yl)-1,3-dimethyl-2-oxoindolin-6-yl]prop-2-enoate] |
| ≥ 100 | Cn1nc(N2CC=CC(=O)NC2=O)c2ccc(Br)cc21 [Example 281, 3-(6-Bromo-1-methylindazol-3-yl)-4H-1,3-diazepine-2,7-dione] |
| < 50 | Cc1sc2c(c1C)C(c1ccc(Cl)cc1)=N[C@@H](CC(=O)NCCCCCCCNc1ccc(N3CCC4(CCCC(=O)NC4=O)CC3=O)cc1)c1nnc(C)n1-2 (stereo partly drawn) [Example 314, 2-[(9S)-7-(4-chlorophenyl)-4,5,13-trimethyl-3-thia-1,8,11,12-tetraazatricyclo[8.3.0.02,6]trideca-2(6),4,7,10,12-pentaen-9-yl]-N-[7-[4-(4,7,9-trioxo-3,8-diazaspiro[5.6]dodecan-3-yl)anilino]heptyl]acetamide] |
| ≥ 100 | CC(C)(C)OC(=O)N1CCC(c2ccc(OC3CCCC(=O)NC3=O)cc2)CC1 (centres unmarked) [Example 276] |
| ≥ 100 | Cc1ccc(NC(=O)Nc2ccc3nc(N4CCC5(CCCC(=O)NC5=O)C4)sc3c2)cc1Cl (centres unmarked) [Example 296, 1-(3-Chloro-4-methylphenyl)-3-[2-(6,8-dioxo-2,7-diazaspiro [4.6]undecan-2-yl)-1,3-benzothiazol-6-yl]urea] |
| ≥ 100 | O=C1NC(=O)C2(c3ccc(Br)cc3)CCC1CC2 [Example 167, 1-(4-Bromophenyl)-3-azabicyclo [3.2.2]nonane-2,4-dione] |
| < 50 | Cn1nc(N2C=CCC(=O)NC2=O)c2ccc(/C=C/C(=O)OC(C)(C)C)cc21 [Example 287, tert-Butyl (E)-3-[3-(2,4-dioxo-5H-1,3-diazepin-1-yl)-1-methylindazol-6-yl]prop-2-enoate] |
| 50 to 100 | O=C1CCCC(n2nc(-c3ccccc3)ccc2=O)C(=O)N1 (centres unmarked) [Example 246, 3-(6-Oxo-3-phenylpyridazin-1-yl) azepane-2,7-dione] |
| ≥ 100 | CC(C)(C)OC(=O)N1CCC(Oc2ccc(CN3CC4(CC(=O)N(C5CCC(=O)NC5=O)C4=O)C3)cc2)CC1 (centres unmarked) [Example 237, tert-Butyl 4-[4-[[6-(2,6-dioxopiperidin-3-yl)-5,7-dioxo-2,6-diazaspiro[3.4]octan-2-yl]methyl]phenoxy]piperidine-1-carboxylate] |
| ≥ 100 | CC(C)(C)OC(=O)NCCCCCOc1ccc2nc(N3CC4(CC(=O)N(C5CCC(=O)NC5=O)C4=O)C3)sc2c1 (centres unmarked) [Example 241, tert-Butyl N-[5-[[2-[6-(2,6-dioxopiperidin-3-yl)-5,7-dioxo-2,6-diazaspiro[3.4]octan-2-yl]-1,3-benzothiazol-6-yl]oxy]pentyl]carbamate] |
| < 50 | Cc1sc2c(c1C)C(c1ccc(Cl)cc1)=N[C@@H](CC(=O)NCCCCCCc1ccc(S(=O)(=O)N(C)C3CCCC(=O)NC3=O)cc1)c1nnc(C)n1-2 (stereo partly drawn) [Example 311, 2-[(9S)-7-(4-chlorophenyl)-4,5,13-trimethyl-3-thia-1,8,11,12-tetraazatricyclo[8.3.0.02,6]trideca-2(6),4,7,10,12-pentaen-9-yl]-N-[6-[4-[(2,7-dioxoazepan-3-yl)-methylsulfamoyl]phenyl]hexyl]acetamide] |
| 50 to 100 | Cn1c(=O)n(C2CCCC(=O)NC2=O)c2cccc(I)c21 (centres unmarked) [Example 210, 3-(4-Iodo-3-methyl-2-oxobenzimidazol-1-yl) azepane-2,7-dione] |
| ≥ 100 | CC(C)(C)OC(=O)N1CCc2c(ncnc2N2CC3(CC(=O)N(C4CCC(=O)NC4=O)C3=O)C2)C1 (centres unmarked) [Example 242, tert-Butyl 4-[6-(2,6-dioxo-3-piperidyl)-5,7-dioxo-2,6-diazaspiro[3.4]octan-2-yl]-6,8-dihydro-5H-pyrido[3,4-d]pyrimidine-7-carboxylate] |
| ≥ 100 | O=C1NC(=O)C2(Nc3cccc(Br)c3)CCC1CC2 [Example 165, 1-(3-Bromoanilino)-3-azabicyclo [3.2.2]nonane-2,4-dione] |
| ≥ 100 | COc1ccc2c(c1)nnn2C1CCCC(=O)NC1=O (centres unmarked) [Example 253, 3-(5-Methoxybenzotriazol-1-yl)azepane-2,7-dione] |
| ≥ 100 | O=C1CCCC(N2C(=O)OCc3cc([N+](=O)[O-])ccc32)C(=O)N1 (centres unmarked) [Example 274, 3-(6-Nitro-2-oxo-4H-3,1-benzoxazin-1-yl) azepane-2,7-dione] |
| ≥ 100 | COc1cccc2c1nnn2C1CCCC(=O)NC1=O (centres unmarked) [Example 255, 3-(4-Methoxybenzotriazol-1-yl)azepane-2,7-dione] |

The remaining lines, values behind:

| Compound | Kd [µM] |
| --- | --- |
| Nc1ccc(N2CCC3(CCCC(=O)NC3=O)C2)c(F)c1 (centres unmarked) [Example 86, 2-(4-Amino-2-fluorophenyl)-2,7-diazaspiro[4.6]undecane-6,8-dione] | ≥ 100 |
| COc1cc([N+](=O)[O-])ccc1N1CCC2(CCCC(=O)NC2=O)C1 (centres unmarked) [Example 42, 2-(2-Methoxy-4-nitrophenyl)-2,7-diazaspiro[4.6]undecane-6,8-dione] | 50 to 100 |
| Cc1ccc(NC(=O)NCc2ccccc2C(=O)N2CCC3(CCCC(=O)NC3=O)C2)cc1Cl (centres unmarked) [Example 156, 1-(3-Chloro-4-methylphenyl)-3-[[2-(6,8-dioxo-2,7-diazaspiro[4.6]undecane-2-carbonyl)phenyl]methyl]urea] | ≥ 100 |
| CC(C)(C)OC(=O)c1cccc(N2CC3(CC(=O)N(C4CCC(=O)NC4=O)C3=O)C2)n1 (centres unmarked) [Example 47, tert-Butyl 6-[6-(2,6-dioxopiperidin-3-yl)-5,7-dioxo-2,6-diazaspiro[3.4]octan-2-yl]pyridine-2-carboxylate] | 50 to 100 |
| O=C1CCCC2(CCN(C(=O)c3ccccc3)C2)C(=O)N1 (centres unmarked) [Example 122, 2-Benzoyl-2,7-diazaspiro [4.6]undecane-6,8-dione] | ≥ 100 |
| CC(C)(C)OC(=O)NCCCCCCc1cccc(C(=O)N2CCC3(CCCC(=O)NC3=O)C2)c1 (centres unmarked) [Example 158, tert-Butyl N-[6-[3-(6,8-dioxo-2,7-diazaspiro[4.6]undecane-2-carbonyl)phenyl]hexyl]carbamate] | 50 to 100 |
| NC(=O)c1nn(-c2ccc(C(=O)NCCOCCOCCNC(=O)c3ccc(N4CCC5(CCCC(=O)NC5=O)CC4=O)nc3)cc2)cc1NC(=O)c1coc(-c2ccnc(NCC3CC3)c2)n1 (centres unmarked) [Example 143, N-[3-Carbamoyl-1-[4-[2-[2-[2-[[6-(4,7,9-trioxo-3,8-diazaspiro [5.6]dodecan-3-yl)pyridine-3-carbonyl]amino]ethoxy]ethoxy]ethylcarbamoyl]phenyl]pyrazol-4-yl]-2-[2-(cyclopropylmethylamino)-4-pyridyl]oxazole-4-carboxamide] | < 50 |
| CN(c1ccc([N+](=O)[O-])cc1)C1CCCC(=O)NC1=O (centres unmarked) [Example 120, 3-(N-Methyl-4-nitro-anilino) azepane-2,7-dione] | ≥ 100 |
| Nc1ccc2nc(N3CCC4(CCCC(=O)NC4=O)C3)sc2c1 (centres unmarked) [Example 85, 2-(6-Amino-1,3-benzothiazol-2-yl)-2,7-diazaspiro[4.6]undecane-6,8-dione] | 50 to 100 |
| O=C1CCCC(c2cccc([N+](=O)[O-])c2)C(=O)N1 (centres unmarked) [Example 62, 3-(3-Nitrophenyl) azepane-2,7-dione] | ≥ 100 |
| Cn1c(=O)n(C2CCCC(=O)NC2=O)c2ccc(CCC(=O)OC(C)(C)C)cc21 (centres unmarked) [Example 141] | 50 to 100 |
| Nc1cccc(C2CCCC(=O)NC2=O)c1 (centres unmarked) [Example 70, 3-(3-Aminophenyl) azepane-2,7-dione] | ≥ 100 |
| Cn1c(=O)n(C2CCCC(=O)NC2=O)c2cccc(C3=CCN(CC(=O)OC(C)(C)C)CC3)c21 (centres unmarked) [Example 222, tert-Butyl 2-[4-[1-(2,7-dioxoazepan-3-yl)-3-methyl-2-oxobenzimidazol-4-yl]-3,6-dihydro-2H-pyridin-1-yl]acetate] | 50 to 100 |
| O=C1CCCC2(CCN(c3ccc([N+](=O)[O-])cn3)C2)C(=O)N1 (centres unmarked) [Example 75, 2-(5-nitro-2-pyridyl)-2,7-diazaspiro[4.6]undecane-6,8-dione] | < 50 |
| NC(=O)c1nn(-c2ccc(C(=O)NCCOCCOCCNC(=O)c3ccnc(N4CCC5(CCCC(=O)NC5=O)C4)c3)cc2)cc1NC(=O)c1coc(-c2ccnc(NCC3CC3)c2)n1 (centres unmarked) [Example 142, N-[3-Carbamoyl-1-[4-[2-[2-[2-[[2-(6,8-dioxo-2,7-diazaspiro [4.6]undecan-2-yl)pyridine-4-carbonyl]amino]ethoxy]ethoxy]ethylcarbamoyl]phenyl]-pyrazol-4-yl]-2-[2-(cyclopropylmethylamino)-4-pyridyl]oxazole-4-carboxamide] | < 50 |
| O=C1CCCC2(CCN(c3ncc([N+](=O)[O-])cc3Cl)C2)C(=O)N1 (centres unmarked) [Example 77, 2-(3-chloro-5-nitro-2-pyridyl)-2,7-diazaspiro[4.6]undecane-6,8-dione] | < 50 |
| Cn1c(=O)n(C2CCCC(=O)NC2=O)c2ccc(Br)cc21 (centres unmarked) [Example 139, 3-(5-Bromo-3-methyl-2-oxobenzimidazol-1-yl) azepane-2,7-dione] | 50 to 100 |
| CC(C)(C)OC(=O)N1CCN(Cc2ccc(N3CCC4(CCCC(=O)NC4=O)C3)nc2)CC1 (centres unmarked) [Example 99, tert-Butyl 4-[[6-(6,8-dioxo-2,7-diazaspiro [4.6]undecan-2-yl)pyridin-3-yl]methyl]piperazine-1-carboxylate] | ≥ 100 |
| COc1cc(N2CCC3(CCCC(=O)NC3=O)C2)ccc1[N+](=O)[O-] (centres unmarked) [Example 41, 2-(3-Methoxy-4-nitrophenyl)-2,7-diazaspiro[4.6]undecane-6,8-dione] | ≥ 100 |
| CC(C)(C)OC(=O)c1ccc(CN2CCC3(CCCC(=O)NC3=O)CC2=O)cc1 (centres unmarked) [Example 111, tert-Butyl 4-[(4,7,9-trioxo-3,8-diazaspiro [5.6]dodecan-3-yl)methyl]benzoate] | 50 to 100 |
